Laboratory results from patent publication US20100056623A1, “FUMAGILLOL DERIVATIVES OR METHOD FOR PREPARATION OF FUMAGILLOL DERIVATIVES, AND PHARMACEUTICAL COMPOSITIONS COMPRISING THE SAME” (CHONG KUN DANG PHARMACEUTICAL CORP., priority 2005, published 2010).
Read-outs that look alike come from different tables or passages of the source.

Assays:
Solubility test = format: physicochemical; conditions: ordinary temperature
Protocol: To a constant amount (400 mg) of each compounds of present invention, a constant amount of demineralized water, methanol and ethanol were added separately, and the solution was stirred at ordinary temperature.

[1] = system: HUVEC (human umbilical vein endothelial cell); assay: Inhibiting activity on cell proliferation, SRB analysis (HUVEC); format: cell-based; conditions: HUVEC cells, 3 days with drug
Protocol: (§1) In order to compare the safety index (SI) of CPAE (calf pulmonary artery endothelial cell) with that of HUVEC (human umbilical vein endothelial cell), L5178Y lymphoma that was isolated from murine thymus was used. The safety index was defined as IC50 ratio of L5178Y against CPAE (IC50L5178Y/IC50CPAE). All cell lines, which had been kept in liquid nitrogen tank, were used after being thawed and subcultured 2˜3 times in T-flask. CPAE, HUVEC and L5178Y were cultured in MEM culture medium (20% FBS, 50˜100 μg/ml ECGS, 0.15% baking soda, 0.05 mg/ml gentamicin), M199 culture medium (20% FBS, 0.22% baking soda, 100 μg/ml heparin, 3 ng/ml bFGF, 0.05 mg/ml gentamicin) and RPMI 1640 culture medium (10% FBS, 0.2% baking soda, 0.05 mg/ml gentamicin), respectively, under the condition of 37° C. and 5% CO2.
(§2) The drug was prepared by being gradationally diluted to two or ten times by using PBS, 20 μl of the solution was added to each well of 96 well plate in triplicate. The cell, which is being incubated, was treated with trypsin to give cell suspension. The number of cell thereafter was counted. And 180 μl of the solution was inoculated to each well and cultured.
(§3) The cell was cultured with drugs for 3 days and then 50 μl of 50% TCA was added thereto (final concentration 10%). Subsequently the cell was fixed by being left alone at 4° C. for 1 hour. The well was washed 4 times by distilled water and then dried. After that 100 μl of SRB (Sulforhodamine B, Sigma Chemical Co.) solution (0.4% w/v in 1% acetic acid) was added thereto and then it was left alone at ordinary temperature for 30 minutes. Thereafter the well was washed 4 times by 1% acetic acid and dried. And then after adding 200 μl of 10 mM tris buffer, the absorbance at 570 nm was measured by automatic microplate reader (Model: Elx 808, Bio-Tek Instrument, INC). The viability was calculated from the ratio of the absorbance of the control to which drugs were not added and the well to which drugs were added.

L5178Y lymphoma = assay: Inhibiting activity on cell proliferation, MTT analysis (L5178Y); format: cell-based, murine; conditions: L5178Y lymphoma cells, 3 days with drug
Protocol: as §1, §2
The tumor cell was cultured with drugs for 3 days and then 50 μl of MTT (3-(4,5-dimethylthiazole-2-yl)-2,5-diphenyl tetrazolium bromide, Sigma Chemical Co.) solution (2.5 mg/ml in PBS) was added thereto. And it was further cultured for 4 hours at 37° C. Culture medium was removed carefully. And after dissolving formazan crystal by adding 150 μl of DMSO, the absorbance at 570 nm was determined.

[2] = Chemical stability test (HPLC purity); conditions: for 1 month Other peaks (%) / 1 month Parent peak (%) / Initial Other peaks (%) / Initial Parent peak (%): HPLC; for 1 month Other peaks (%) / 1 month Parent peak (%): air-tight vessel; for change of purity (%): initial vs 1 month at 40±2° C.
Protocol: Each compound of the present invention was kept in an air-tight vessel for 1 month at 40±2° C. and 75±5% of relative humidity. Thereafter the HPLC purity test was executed.
25 mL of the solution was precisely taken, and poured into 100 mL volumetric flask. Acetonitrile/20 mM ammonium acetate aqueous solution (50:50) was added thereto to be the total volume of 100 ml. The solution was filtrated, and the filtrate was used as a test liquid.
(2) Operational Condition of Instrument. • Column: Kromasil®C18 (UG 100 Å, 5 μm, 4.6 mm Φ×250 mm) • Column temperature: 30° C. • Mobil phase: 20 mM ammonium acetate (pH 4.2) buffer:acetonitrile (55:45) • Injection volume: 20 μL • Flow rate: 1.2 mL/min • Detector: UV light-absorption Spectrophotometer (detection wavelength: 306 nm)

[3] = system: CPAE (calf pulmonary artery endothelial cell); assay: Inhibiting activity on cell proliferation, SRB analysis (CPAE); format: cell-based; conditions: for IC50: CPAE cells, 3 days with drug, SRB, read-out: IC50 (nM) CAPE; for Selectivity Index (L5178Y/CAPE): IC50 L5178Y / IC50 CPAE
Protocol: as §1, §2, §3

[4] = 1 month at 40±2° C., 75±5% relative humidity
[5] = Bos taurus, Endothelial cell, 72 h

Row | Compound | The amount of solvent to dissolve 1 g of the compounds (ml), demineralized water (Solubility test) | The amount of solvent to dissolve 1 g of the compounds (ml), ethanol (Solubility test) | The amount of solvent to dissolve 1 g of the compounds (ml), methanol (Solubility test) | IC50 (L5178Y lymphoma) | 1 month Other peaks (%) [2, 4] | 1 month Parent peak (%) [2, 4] | Initial Other peaks (%) [2] | Initial Parent peak (%) [2] | change of purity (%) ([2]; 75±5% relative humidity) | IC50 (L5178Y lymphoma; Mus musculus, 72 h) | change of purity (in words) [2, 4] | IC50 [1] | IC50 [3] | Selectivity Index (L5178Y/CAPE) [3] | IC50 ([1]; Homo sapiens, 72 h) | chemical stability compared to known compounds [2, 4] | IC50 [3, 5]
1 | COc1ccc(/C=C/C(=O)O[C@@H]2CC[C@]3(CO3)[C@@H]([C@@]3(C)O[C@@H]3CC=C(C)C)[C@@H]2OC)cc1OCCO [Example 4, O-(3-(2-hydroxyethoxy)-4-methoxycinnamoyl)fumagillol] | 145 mL | 65 mL | 49 mL | – | 1.5% | 98.5% | 1.3% | 98.7% | 0.2% | 27300 nM | hardly showed a change of purity | – | – | 4.53 × 10^6 | 0.00376 nM | more excellent chemical stability than TNP-470, CKD-732 and CKD-731 | 0.006 nM
2 | CO[C@@H]1[C@H](OC(=O)/C=C/c2ccc(NCCO)cc2)CC[C@]2(CO2)[C@H]1[C@@]1(C)O[C@@H]1CC=C(C)C [Example 5, O-(4-(2-hydroxyethylamino)cinnamoyl)fumagillol] | 132 mL | 60 mL | 39 mL | – | 1.5% | 98.5% | 0.8% | 99.2% | 0.7% | 7110 nM | – | – | – | 1.16 × 10^6 | 0.00104 nM | more excellent chemical stability than TNP-470, CKD-732 and CKD-731 | 0.0061 nM
3 | CO[C@@H]1[C@H](OC(=O)/C=C/c2ccc(Cl)c(NCCO)c2)CC[C@]2(CO2)[C@H]1[C@@]1(C)O[C@@H]1CC=C(C)C [Example 7, O-(4-chloro-3-(2-hydroxyethylamino)cinnamoyl)fumagillol] | 137 mL | 67 mL | 42 mL | – | 1.1% | 98.9% | 0.6% | 99.4% | 0.5% | 31000 nM | – | – | – | 4.77 × 10^6 | 0.0017 nM | more excellent chemical stability than TNP-470, CKD-732 and CKD-731 | 0.0065 nM
4 | CO[C@@H]1[C@H](OC(=O)/C=C/c2ccc(OCCCCCO)cc2)CC[C@]2(CO2)[C@H]1[C@@]1(C)O[C@@H]1CC=C(C)C [Example 23, O-(4-(5-hydroxypentoxy)cinnamoyl)fumagillol] | – | – | – | – | – | – | – | – | – | 9250 nM | – | – | – | 1.98 × 10^5 | 0.0057 nM | – | 0.0467 nM
5 | CO[C@@H]1[C@H](OC(=O)/C=C/c2ccc(OCCCCCO)c([N+](=O)[O-])c2)CC[C@]2(CO2)[C@H]1[C@@]1(C)O[C@@H]1CC=C(C)C [Example 24, O-(3-nitro-4-(5-hydroxypentoxy)cinnamoyl)fumagillol] | – | – | – | – | – | – | – | – | – | 10400 nM | – | – | – | 1.10 × 10^5 | 0.0042 nM | – | 0.0946 nM
6 | CO[C@@H]1[C@H](OC(=O)/C=C/c2ccc(OCCCCCCO)cc2)CC[C@]2(CO2)[C@H]1[C@@]1(C)O[C@@H]1CC=C(C)C [Example 25, O-(4-(6-hydroxyhexyloxy)cinnamoyl)fumagillol] | – | – | – | – | – | – | – | – | – | 21100 nM | – | – | – | 1.70 × 10^5 | 0.0015 nM | – | 0.124 nM
7 | CO[C@@H]1[C@H](OC(=O)/C=C/c2ccc(OCCCCCCO)c(C(F)(F)F)c2)CC[C@]2(CO2)[C@H]1[C@@]1(C)O[C@@H]1CC=C(C)C [Example 26, O-(3-trifluoromethyl-4-(6-hydroxyhexyloxy)cinnamoyl)fumagillol] | – | – | – | – | – | – | – | – | – | 9990 nM | – | – | – | 1.48 × 10^4 | 0.0019 nM | – | 0.677 nM
8 | CO[C@@H]1[C@H](OC(=O)NC(=O)CCl)CC[C@]2(CO2)[C@H]1[C@@]1(C)O[C@@H]1CC=C(C)C [TNP-470, O-chloroacetylcarbamoylfumagillol, reference compound] | 876 mL | 250 mL | 208 mL | – | 3.5% | 96.5% | 1.3% | 98.7% | 2.2% | 4300 nM | – | – | – | 3.85 × 10^3 | 0.00896 nM | – | 0.449 nM

The next lines start with results.

Row | The amount of solvent to dissolve 1 g of the compounds (ml), demineralized water (Solubility test) | The amount of solvent to dissolve 1 g of the compounds (ml), ethanol (Solubility test) | The amount of solvent to dissolve 1 g of the compounds (ml), methanol (Solubility test) | IC50 (L5178Y lymphoma) | 1 month Other peaks (%) [2, 4] | 1 month Parent peak (%) [2, 4] | Initial Other peaks (%) [2] | Initial Parent peak (%) [2] | change of purity (%) ([2]; 75±5% relative humidity) | IC50 (L5178Y lymphoma; Mus musculus, 72 h) | change of purity (in words) [2, 4] | Compound | IC50 [1] | IC50 [3] | Selectivity Index (L5178Y/CAPE) [3] | IC50 ([1]; Homo sapiens, 72 h) | chemical stability compared to known compounds [2, 4] | IC50 [3, 5]
9 | 1100 mL | 219 mL | 197 mL | 8720 nM | 4.6% | 95.4% | 0.8% | 99.2% | 3.8% | – | – | CO[C@@H]1[C@H](OC(=O)C=Cc2ccc(OCCN(C)C)cc2)CC[C@]2(CO2)[C@H]1[C@@]1(C)O[C@@H]1CC=C(C)C [CKD-732, O-(4-dimethylaminoethoxycinnamoyl)fumagillol, reference compound] | 0.0066 nM | 0.648 nM | 1.35 × 10^4 | – | – | –
10 | 130 mL | 58 mL | 31 mL | – | 1.9% | 98.1% | 1.4% | 98.6% | 0.5% | 27700 nM | – | CO[C@@H]1[C@H](OC(=O)/C=C/c2cccc(NCCO)c2)CC[C@]2(CO2)[C@H]1[C@@]1(C)O[C@@H]1CC=C(C)C [Example 6, O-(3-(2-hydroxyethylamino)cinnamoyl)fumagillol] | – | – | 3.88 × 10^6 | 0.00222 nM | more excellent chemical stability than TNP-470, CKD-732 and CKD-731 | 0.0071 nM
11 | – | – | – | – | – | – | – | – | – | 9490 nM | – | CO[C@@H]1[C@H](OC(=O)/C=C/c2ccc(NCCOCCO)cc2)CC[C@]2(CO2)[C@H]1[C@@]1(C)O[C@@H]1CC=C(C)C [Example 16, O-(4-(2-hydroxyethoxyethylamino)cinnamoyl)fumagillol] | – | – | 2.31 × 10^5 | 0.0022 nM | – | 0.041 nM
12 | – | – | – | – | – | – | – | – | – | 30700 nM | – | CO[C@@H]1[C@H](OC(=O)/C=C/c2cccc(NCCOCCO)c2)CC[C@]2(CO2)[C@H]1[C@@]1(C)O[C@@H]1CC=C(C)C [Example 17, O-(3-(2-hydroxyethoxyethylamino)cinnamoyl)fumagillol] | – | – | 6.26 × 10^5 | 0.00302 nM | – | 0.049 nM
13 | – | – | – | – | – | – | – | – | – | 41900 nM | – | CO[C@@H]1[C@H](OC(=O)/C=C/c2ccc(Cl)c(NCCOCCO)c2)CC[C@]2(CO2)[C@H]1[C@@]1(C)O[C@@H]1CC=C(C)C [Example 18, O-(4-chloro-3-(2-hydroxyethoxyethylamino)cinnamoyl)fumagillol] | – | – | 9.31 × 10^5 | 0.0019 nM | – | 0.045 nM
